For data set [1], the target named is T1, QuantiLum Recombinant Luciferase (Photinus pyralis, UniProt P08659).
T1 construct: purchased
Description: Purified luciferase inhibition in vitro. It counts as biochemical. Particulars: for effect on luciferase activity in vitro: in words, 1E7-03 at concentrations below 100 μM; for IC50: purified luciferase, room temperature, 10 min. The procedure: QuantiLum Recombinant Luciferase (20 ng/ml in PBS) was added into 96-well plate (100 μl/well) and incubated with serial dilutions of the compounds or vehicle (DMSO) under room temperature for 10 min. 100 μl of reconstituted luciferase buffer (Luclite Kit, Perkin Elmer) was added to each well, incubated for another 10 min and luminescence was measured using Glo-Max Microplate Multimode reader (Promega).

Data set [2] can be described thus: Pharmacokinetic analysis in mice after i.p. injection. The data set is classed as in vivo. Particulars: male, BALB/cJ, ip. The procedure: The animal facilities and protocols were approved by Howard University Institutional Animal Care and Use Committee (IACUC). All experimental procedures were in accordance with the NIH Guidelines for the Care and Use of Laboratory Animals. BALB/cJ male mice (8 weeks old, 25–30 g) were purchased from Jackson Laboratory (Bar Harbor, ME, USA) and housed under pathogen-free conditions in HEPA-filtered cages and kept on a 12 h light/dark cycle. Compounds were administered to mice via intraperitoneal (i.p.) injection with maximum achievable doses of 30 mg/kg 1E7-03 (100 μl injection of 8 mM 1E7-03 in 80% DMSO/20% saline) and 100 mg/kg DP1-07 (100 μl injection of 100 mM DP1-07 in 40% propylene glycol/10% DMSO/50% saline). Blood samples were collected at different time points (15 min, 30 min, 1 hr, 3 hr, 6 hrs and 24 hrs) for each group (n=3 mice per group). For each sample, 20 μl of plasma was mixed with 80 μl cold acetone, and centrifuged at 13,000 rpm for 5 min. The supernatant was transferred to a clean test tube and dried in a SpeedVac concentrator. The residue was re-constituted in 50 μl of acetonitrile for LC-MS analysis. Calibration curves were prepared by spiking 1E7-03, DP1, DP3 and DP1-07 into the drug-free mouse plasma and subjected to similar sample extraction procedures. The plasma concentration–time profile of each analyte was constructed and pharmacokinetic parameters were determined by non-compartmental method using Phoenix WinNonlin Version 5.3 (Pharsight Corporation, Mountain View, CA).
A 10 μl aliquots from each sample were loaded to a LC-20AD nano HPLC system (Shimadzu Corporation, Columbia, MD, USA) coupled to LTQ XL Orbitrap mass spectrometer (Thermo Fisher Scientific) with the installed Xcalibur software (version 2.0.7, Thermo Fisher Scientific). Liquid chromatography was carried out on an in-house made nano-HPLC column (Polymicro Technologies Inc., Phoenix, AZ, USA) packed with reverse phase PolySulfoethyl A, 5μM, 200 Å (PolyLC Inc., Columbia, MD, USA). Mobile phase A was 0.1% formic acid in water and mobile phase B - 0.1% formic acid in acetonitrile. The elution was performed at a flow rate of 600 nl/min over 40 min using a multisegment linear gradient of mobile phase B as follows: 0–6.02 min, 1% B; 6.02–6.11 min, 1–2% B; 6.11–20 min, 2−80% B; 20–25 min, 80% B; 25–30 min, 80–85% B; 30–31 min, […]; 31–40 min, 2% B (v/v). The Orbitrap was operated under data-dependent acquisition mode. The spray voltage, capillary temperature and capillary voltage were set to 2.0 kV, 200 °C, and 39.5 V, respectively. Full-scan mass spectra were acquired in Orbitrap over 150−1500 m/z with a resolution of 30 000, followed by MS^n scans by CID activation mode. The precursor ions were fragmented with collision energy of 18 with activation Q of 0.25 and an activation time of 30 ms. Dynamic exclusion was enabled with a repeat count of 2, a repeat duration of 15 s, exclusion duration of 20 s, an exclusion list size of 50. The mass spectrometer was also operated in NL scan of m/z 18.01, 45.05, 71.03 and 72.02 and MRM mode. The MRM transitions were controlled by a segmented program in order to short the scan cycle and increase sensitivity.

In the next data set the test system is HIV-1-LUC-G. Kind of data set: Single round HIV-1 replication, luciferase readout in CEM T cells. It counts as cell-based. Particulars: Human immunodeficiency virus 1, T-cell. The procedure:
CEM T cells were infected with VSVG-pseudotyped pNL4-3.Luc.R-E-virus (HIV-1-LUC-G) prepared as previously described and cultured in 96-well white plates ( 1.25 × 10^6 cells/ml, 100 μl/well) at 37°C and 5% CO2. The cells were treated with serial dilutions of the compounds or vehicle (DMSO) and incubated overnight. At 24 hrs post infection, 100 μl of reconstituted luciferase buffer (Luclite Kit, Perkin Elmer) was added to each well, incubated for 10 min and luminescence was measured using Glo-Max Microplate Multimode reader (Promega).

In a further data set the test system is HIV-1 env and gag mRNA. Kind of data set: HIV-1 env and gag mRNA expression by real-time RT-PCR in infected CEM T cells. Particulars: 10 μM 1E7-03, DP1, DP3; 5 μM AZT, 3TC; in words. The data set is classed as cell-based. The method, then:
For quantitative analysis of HIV-1 RNA, CEM T cells were infected with HIV-1-LUC-G virus. Cells were treated with 10 μM 1E7-03, 10 μM DP1, 10 μM DP3, 5 μM AZT or 5 μM 3TC and control cells were untreated or treated with DMSO. Total RNA was isolated using Trizol Reagent (Invitrogen, Carlsbad, CA) according to the manufacturer's protocol. Total RNA (100 ng) was reverse transcribed to cDNA using Superscript™ RT-PCR kit (Invitrogen, Carlsbad, CA). Hexamers and oligo-dT were used as primers. For real-time PCR analysis, cDNA was amplified using Roche LightCycler 480 (Roche Diagnostics) and SYBR Green1 Master mix (Roche Diagnostics). PCR was run for 45 cycles and each cycle included denaturation at 95°C for 10 seconds, annealing at 60°C for 10 seconds, and extension at 72°C for 10 seconds. Quantification of env and gag was carried using 18S RNA as a normalization standard. Quantification of housekeeping genes, β-actin and RSP13 was carried relative to 18S RNA. Mean Cp values were determined and ΔΔCt method was used to calculate relative expression levels. Unpaired t-test was used to test statistical significance.
The following primer sequences were used: env, forward - […], reverse-[…]; gag, forward- […], reverse- […]; β-actin, forward- […], reverse-[…]; RSP13, forward- […], reverse- […]; and 18SrRNA, forward- […], reverse- […].
Background: Real-time PCR tracks product formation cycle by cycle.

Where [3] appears, read: mouse plasma after i.p. 100 mg/kg DP1-07, parent and products DP1-07P1, DP1-07P2.
The mark [4] stands for this setting: read-out: One round HIV-1 infection IC50, CEM T cells, HIV-1-LUC-G, Figure 7D.
Setting [5] is: mouse plasma after i.p. 30 mg/kg 1E7-03, parent and its metabolites DP1, DP3, mean, n=3.
The mark [6] stands for this setting: mouse plasma after i.p. 30 mg/kg 1E7-03, parent and metabolites DP1, DP3.
Setting [7] is: mouse, plasma, 30 mg/kg, mouse plasma after i.p. 30 mg/kg 1E7-03, parent and metabolites DP1, DP3.
Where [8] appears, read: read-out: One round HIV-1 infection IC50, CEM T cells, HIV-1-LUC-G, Figure 4A.

Like-named read-outs stand apart in the source and are kept apart here. Bounds are passed on as bounds.

T1 sequence (P08659 whole entry): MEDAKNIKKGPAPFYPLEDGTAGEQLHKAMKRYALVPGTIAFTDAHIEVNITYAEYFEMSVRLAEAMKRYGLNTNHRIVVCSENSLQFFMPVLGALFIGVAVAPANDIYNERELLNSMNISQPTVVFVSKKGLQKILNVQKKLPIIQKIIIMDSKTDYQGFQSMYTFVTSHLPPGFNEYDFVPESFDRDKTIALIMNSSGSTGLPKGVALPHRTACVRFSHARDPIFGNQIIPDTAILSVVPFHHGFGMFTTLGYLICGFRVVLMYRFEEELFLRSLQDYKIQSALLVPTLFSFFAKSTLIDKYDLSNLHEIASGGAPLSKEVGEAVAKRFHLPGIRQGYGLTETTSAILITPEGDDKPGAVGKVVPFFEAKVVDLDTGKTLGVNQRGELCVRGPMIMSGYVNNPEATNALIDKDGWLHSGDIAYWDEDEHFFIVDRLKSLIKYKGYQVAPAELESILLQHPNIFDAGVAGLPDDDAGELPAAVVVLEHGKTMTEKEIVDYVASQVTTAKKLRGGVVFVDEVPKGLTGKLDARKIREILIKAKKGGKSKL

On to `COc1ccc(/C=C2\CCCc3c2nc2ccccc2c3C(=O)OC(C)C(=O)OC(C)(C)C)cc1OC` (stereo not shown) [DP1-07], for which the “effect on luciferase activity in vitro” value in data set [1] is “did not inhibit”. In data set [2] (setting [3]), the AUC(0-t) (as a rule, the area under the concentration-time curve up to a stated or last time point) amounted to 706 µM·h; the MRT last (in general, a mean duration of stay, worked out from the concentration-time curve) came out at 10.7 h; the half-life (usually the time in which the quantity being followed falls by half) was 14.3 h. Further, the Cmax (usually the maximum level reached in the sampled fluid or tissue) in data set [2] (mouse plasma after i.p. 100 mg/kg DP1-07, parent and products DP1-07P1, DP1-07P2 (quantified with DP1 and DP3 calibration curves)) was determined as 42.7 µM. Further, the Tmax (as a rule, the time from dosing to the highest level) in data set [2] (mouse, plasma, 100 mg/kg, mouse plasma after i.p. 100 mg/kg DP1-07, parent and products DP1-07P1, DP1-07P2) was roughly 6 h. Moreover, in data set [2] (mouse, plasma, i.p. 100 mg/kg DP1-07, 24 hrs, read-out: concentration present in murine blood 24 hrs post-injection), the concentration at 24 h is 18 µM. For the same molecule, in the data set on HIV-1-LUC-G (setting [4]), the IC50 (usually the concentration needed to halve the response being measured) was greater than 66 µM.

Take `COc1ccc(/C=C2\CCc3c2nc2ccccc2c3C(=O)OC(C)C(=O)O)cc1OC` (stereo not shown) [DP1]: the IC50 in data set [1] stood at 37 µM. Besides, in data set [2] (setting [5]), the Cmax came out at 9.09 µM. For the same molecule, in data set [2] (setting [6]), the area under the curve AUC(0-t) came to 124 µM·h, the MRT last stood at 4.98 h and the half-life was 3.2 h. Besides, in data set [2] (setting [7]), the Tmax was found to be 3 h. In addition, in the data set on HIV-1 env and gag mRNA, the “HIV-1 env mRNA expression” value was “not affected” and the “HIV-1 gag mRNA expression” value is “not affected”. Moreover, the IC50 with HIV-1-LUC-G (setting [8]) worked out at 17 µM.

As to `CCNC(=O)NC(=O)C(C)OC(=O)c1c2c(nc3ccccc13)/C(=C/c1ccc(OC)c(OC)c1)CC2` (stereo not shown) [1E7-03], in data set [1], the “effect on luciferase activity in vitro” value is reported as “no effect” and the IC50 is greater than 180 µM. Besides, the Cmax in data set [2] (setting [5]) was 3.43 µM. For the same molecule, in data set [2] (setting [6]), the AUC(0-t) was 12.2 µM·h, the MRT last was found to be 2.4 h and the half-life was 3.39 h. The time of peak concentration (Tmax) in data set [2] (setting [7]) came to 0.5 h. Moreover, in the data set with HIV-1 env and gag mRNA, the “HIV-1 env mRNA expression” value is listed as “significantly reduced” and the “HIV-1 gag mRNA expression” value is recorded as “significantly reduced”. Besides, the IC50 with HIV-1-LUC-G (setting [8]) worked out at 1.7 µM. In addition, the IC50 in the data set on HIV-1-LUC-G (setting [4]) was 2 µM.

For the molecule `COc1ccc(/C=C2\CCc3c2nc2ccccc2c3C(=O)O)cc1OC` [DP3], in data set [1], the concentration for half-maximal inhibition (IC50) came out at 7.2 µM. The Cmax in data set [2] (setting [5]) amounted to 3.61 µM. Besides, in data set [2] (setting [6]), the AUC(0-t) is 30.7 µM·h, the mean residence time MRT last turned out to be 4.39 h and the half-life was 2.44 h. Further, in data set [2] (setting [7]), the time of peak concentration (Tmax) turned out to be 1 h. Besides, in the data set with HIV-1 env and gag mRNA, the “HIV-1 env mRNA expression” value is given as “not affected” and the “HIV-1 gag mRNA expression” value was “not affected”. Also, the IC50 in the data set on HIV-1-LUC-G (setting [8]) is greater than 180 µM.

These data come from PMC5652740, “Inhibition of HIV-1 infection in humanized mice and metabolic stability of protein phosphatase-1-targeting small molecule 1E7-03” (Oncotarget, 2017).
